Data taken from patent publication US8343912B2, “Antibiotic compositions for the treatment of gram negative infections” (priority 2008, dated 2013).
Values after ≈ are worked out from the molar mass of the structure shown. Marks after values point to notes of the source that are not given here. Numbered stars: 1 amine (or outer) side, 2 acyl side, 3 side chain; on linkers, the order of the positions; unused ones are H or OH. Bridge positions count the residues as written; N and C are the ends. Square brackets hold non-standard residues; d marks the D form. Peptide text beside a SMILES is read from it. * marks the point of attachment. NH(3-Cl-phenyl) = Clc1cccc(N*)c1; NH(2-ClPh) = Clc1ccccc1N*; Dab = NCC[C@H](N)C(=O)O; CO = O=C([*:1])[*:2]

Experiments:
P. aeruginosa #44 = assay: MIC, broth microdilution; format: cell-based, Pseudomonas aeruginosa; details: Table 5; range of repeated tests
Description: (§1) MIC testing was performed according to Clinical and Laboratory Standards Institute (CLSI) M7-A7 (2006) broth microdilution methods. Unless otherwise indicated, MIC values are provided in units of micrograms per milliliter.
(§2) One day prior to testing, individual colonies were isolated by streaking onto rich, non-selective Tryptic Soy agar with 5% lysed sheeps blood (TSAB) with incubation at 35-37° C. for 18-24 hours.
(§3) Cultures were prepared by touching 3-5 colonies into 3 mL of Cation adjusted Mueller Hinton Broth (caMHB) in a 14 mL tube (CaMHB was prepared and sterilized according to manufacturer's specifications). Cultures were grown at 37° C. 200 rpm for approximately four hours prior to density adjustment for addition to the MIC assay.
(§4) OD600 of growing cultures was measured and adjusted to approximately 10^5 colony forming units per mL (CFU/mL) in caMHB for MIC inoculation (approximately OD600 0.001).
(§5) Diluted cultures were used to inoculate 50 μL per well in broth microdilution assays (final volume 100 μl per well; compounds were prepared in two-fold dilutions).
(§6) Plates were incubated 16-20 hrs at 37° C., with shaking at 200 rpm.
(§7) OD600 was determined for all wells. Growth was defined as OD600>0.1. MICs were defined as the lowest concentration producing no visible turbidity (OD600<0.1).
(§8) P. aeruginosa #44 or K. pneumoniae #21 were grown in cation adjusted Mueller Hinton Broth (caMHB) (catalog #B12322; Fisher Scientific, Pittsburgh, Pa.) at 37° C. MIC testing was performed according to Clinical and Laboratory Standards Institute [CLSI, formerly National Committee for Clinical Laboratory Standards (NCCLS), Wayne, Pa.] guidelines for broth microdilution.
(§9) MIC testing was performed according to CLSI (formerly NCCLS) guidelines for broth microdilution.

E. coli = assay: MIC90, broth microdilution, panel of Gram negative clinical isolates; format: cell-based, Escherichia coli; details: 80 strains; some strains multi-drug resistant
Description: (§10) To evaluate the potency and spectrum of compounds of Formula (I), (i.e., Compounds designated 5 and 6), a study was conducted that put together a panel of 455 Gram negative strains, which included multi-drug resistant clinical isolates selected from various surveillance programs. Table 3A lists the strains that were included in the study and the activity of Compound 5, Compound 6, and colistin (polymyxin E, abbreviated PME). Strains with acquired resistance to colistin and/or carbapenems and/or broad spectrum cephalosporins were pre-selected and included in all organism groups evaluated.
as §1, §2, §3, §4, §5, §6, §7

K. pneumonia = assay: as above; format: cell-based, Klebsiella pneumoniae; details: 81 strains; some strains multi-drug resistant
Description: as §10, §1, §2, §3, §4, §5, §6, §7

P. aeruginosa [1] = assay: as above; format: cell-based, Pseudomonas aeruginosa; details: for MIC90 P. aeruginosa: 100 strains
Description: as §10, §1, §2, §3, §4, §5, §6, §7

S. maltophilia = assay: as above; format: cell-based, Stenotrophomonas maltophilia; details: 25 strains
Description: as §10, §1, §2, §3, §4, §5, §6, §7

patients = details: human, in vivo; cited from earlier work
Acinetobacter spp = assay: MIC90, broth microdilution, panel of Gram negative clinical isolates; format: cell-based; details: 81 strains
Description: as §10, §1, §2, §3, §4, §5, §6, §7

Enterobacter = assay: as above; format: cell-based; details: 20 strains; some strains multi-drug resistant
Description: as §10, §1, §2, §3, §4, §5, §6, §7

Citrobacter spp. = assay: as above; format: cell-based; details: 20 strains; some strains multi-drug resistant
Description: as §10, §1, §2, §3, §4, §5, §6, §7

[2] = tested on: Acinetobacter baumannii 1570; assay: MIC, broth microdilution; format: cell-based; details: Table 8; range of repeated tests
Description: as §1, §2, §3, §4, §5, §6, §7
as §8, with “A. baumannii #1570” for “P. aeruginosa #44 or K. pneumoniae #21”
as §9

P. aeruginosa [3] = assay: MIC, broth microdilution (Table 4); format: cell-based, Pseudomonas aeruginosa; details: for MIC P. aeruginosa: Table 4
Description: as §1, §2, §3, §4, §5, §6, §7

[4] = Cell culture cytotoxicity assay (ATP bioluminescence, LLC-PK1); format: cell-based, rat; details: read-out: EC50, rat kidney proximal tubule cell culture cytotoxicity assay
Description: (§11) Day 1: 1×10^5 to 2×10^5 cellswere inoculated (Cell line: LLC-PK1) per flask, containing 4 mL/T25 flask of medium DMEM-F12 (50/50) media supplemented with 10% FBS (Fetal Bovine Serum). The cells were then incubated at 37° C., 5% CO2, 80% RH.
(§12) Day 4: The cell cultures were examined to determine 80% confluency. To trypsinize of the 80% confluent flasks, 4 mL of DMEM-F12-10% FBS media was prepared per flask. The media was aspirated from the flask and 5 mL of Versene was added to rinse the flask. The Versene was aspirated and 2 mL of triple Express solution (trypsin solution) was added. The cells were incubated for 5 min at room temperature and examined via microscopy for the rounding of the cells and their detachment. To speed up the reaction, the flask can be incubated at 37° C. for 3 minutes. 4 mL of media (DMEM-F12-10%FBS) was added to stop the reaction. Using a 5 mL pipette, the completed reaction was pipetted up and down to ensure that the cells were properly detached from the flask and from each others. The cell number was counted using a hemocytometer slide. 100 μL of cell suspension was transferred to a tube and 100 μL of Trypan Blue was added. Inoculum for 96 well is 10,000 cells per well. For one 96 well plate, 26.3 μL×110 well=2893 μL total. 2.9 mL of cell suspension was mixed with 8.1 mL of media DMEM-F12-10% FBS and 100 μL was distributed to each well using a multichannel pipetter. The plate was then Incubated for 24 h at 37° C.
(§13) Day 5: DMEM-F12 (no FBS) medium was dispensed into tubes with the test article to achieve final concentrations of […]. The 96 well plate was taken off the incubator and media was removed from each well using multichannel pipetter. 80 μL of serially diluted compounds of Formula (I) was added to each well. Every set of concentration was done in triplicate. Media and positive controls were added to each plate and the plates were incubated for 24 hours at 37° C.
(§14) Day 6: The plates were taken from the incubator, the media was removed from each well, and 100 μL of fresh media DMEM-F12 (this is equivalent to a rinse and the media can be replaced with PBS) was added. The media is then removed and 80 μL of cell lysis solution is added. After 5 minutes, 80 μL of sterile filtered high quality water was added to each well. Using a white or black 96 well reaction plate, 80 μL of 25× diluted ATP mix reagent (Sigma Bioluminescent Somatic Cell Assay Kit [cat #FL-ASC]) was added into one column. 80 μL of diluted ATP standards (dilutions used: 250, 500, 1000, 2000 and 4000) was added and the plate was read immediately in the topcount with a 2 second read time. In another white or black 96 well reaction plate, 80 μL of 25× diluted ATP mix reagent (plate A) was added and 80 μL of lysis-water solution was transferred to each column of plate A. The plate was then read immediately in the topcount with a 2 second read time. This process was repeated for next consecutive plate and the EC50 for certain compounds of Formula I were calculated and provided in Table 4.

[5] = tested on: Rat kidney proximal tubule cells; assay: as above; format: cell-based; details: LLC-PK1, 24 hours, ATP readout
Description: as §11, §12, §13, §14

Molecule: colistin [reference compound]
- MIC against P. aeruginosa #44 (P. aeruginosa #44): 2-4 micrograms/ml
- MIC90 E. coli (E. coli): 2* micrograms/mL
- MIC90 K. pneumonia (K. pneumonia): 4* micrograms/mL
- MIC90 P. aeruginosa (P. aeruginosa [1]): 2 micrograms/mL
- MIC90 S. maltophilia (S. maltophilia): 16 micrograms/mL
- overall incidence of neurotoxicity or neuropathy (patients): 7.3%
- MIC90 Acinetobacter spp (Acinetobacter spp): 4 micrograms/mL
- MIC90 Enterobacter (Enterobacter): >64* micrograms/mL
- MIC90 Citrobacter spp. (Citrobacter spp.): 0.5* micrograms/mL
- MIC against A. baumannii #1570 [2]: 2 micrograms/ml

Molecule: CC(C)C[C@@H]1NC(=O)[C@@H](Cc2ccccc2)NC(=O)[C@H](CCN)NC(=O)[C@@H](NC(=O)[C@H](CCN)NC(=O)[C@@H](NC(=O)[C@H](CCN)NC(=O)Nc2cccc(Cl)c2)[C@@H](C)O)CCNC(=O)[C@H]([C@@H](C)O)NC(=O)[C@H](CCN)NC(=O)[C@H](CCN)NC1=O [Compound 4] ({NH(3-Cl-phenyl)-CO}-[Dab]T[Dab][Dab][Dab][dF]L[Dab][Dab]T; lactam 4-C)
- activity against bacteria compared with polymyxin B (P. aeruginosa [3]): as active or more active
- MIC P. aeruginosa (P. aeruginosa [3]): 2 micrograms/ml
- EC50 [4]: 691 µg/mL (≈ 568 µM)

Molecule: CC[C@H](C)[C@@H]1NC(=O)[C@@H](Cc2ccccc2)NC(=O)[C@H](CCN)NC(=O)[C@@H](NC(=O)[C@H](CCN)NC(=O)[C@@H](NC(=O)[C@H](CCN)NC(=O)Nc2ccccc2Cl)[C@@H](C)O)CCNC(=O)[C@H]([C@@H](C)O)NC(=O)[C@H](CCN)NC(=O)[C@H](CCN)NC1=O [Compound 6] ({NH(2-ClPh)-CO}-[Dab]T[Dab][Dab][Dab][dF]I[Dab][Dab]T; lactam 4-C)
- MIC90 E. coli (E. coli): 4 micrograms/mL
- activity against bacteria compared with polymyxin B (P. aeruginosa [3]): as active or more active
- MIC P. aeruginosa (P. aeruginosa [3]): 1 micrograms/ml
- MIC90 K. pneumonia (K. pneumonia): 4 micrograms/mL
- MIC90 P. aeruginosa (P. aeruginosa [1]): 8 micrograms/mL
- decrease in activity against colistin susceptible P. aeruginosa (P. aeruginosa [1]; relative to colistin / Compound 5): approximately 4 fold
- EC50 Rat kidney proximal tubule cells [5]: >1000 micrograms/ml
- EC50 [4]: > 1000 µg/mL
- MIC90 S. maltophilia (S. maltophilia): 16 micrograms/mL
- MIC90 Acinetobacter spp (Acinetobacter spp): 2 micrograms/mL
- MIC90 Enterobacter (Enterobacter): >16 micrograms/mL
- MIC90 Citrobacter spp. (Citrobacter spp.): 1 micrograms/mL
